Test [1] addresses Mitogen-activated protein kinase 9 (Homo sapiens) (UniProt P45984). As to the kind of experiment: Displacement of biotin-labeled pep-JIP1 from GST fused JNK2 by DELFIA assay.
The target of test [2] is Mitogen-activated protein kinase 8 (Homo sapiens, UniProt P45983). As to the kind of experiment: Inhibition of JNK1 by TR-FRET assay. Background: TR-FRET usually uses a lanthanide donor and a delayed reading to cut background.
For test [3], the target named is Mitogen-activated protein kinase 14 (Homo sapiens) (UniProt Q16539). Kind of test: Inhibition of MAPK p38alpha upto 100 uM.
Chain of Mitogen-activated protein kinase 14 (Homo sapiens) (Q16539 whole entry, the tested form may be a part): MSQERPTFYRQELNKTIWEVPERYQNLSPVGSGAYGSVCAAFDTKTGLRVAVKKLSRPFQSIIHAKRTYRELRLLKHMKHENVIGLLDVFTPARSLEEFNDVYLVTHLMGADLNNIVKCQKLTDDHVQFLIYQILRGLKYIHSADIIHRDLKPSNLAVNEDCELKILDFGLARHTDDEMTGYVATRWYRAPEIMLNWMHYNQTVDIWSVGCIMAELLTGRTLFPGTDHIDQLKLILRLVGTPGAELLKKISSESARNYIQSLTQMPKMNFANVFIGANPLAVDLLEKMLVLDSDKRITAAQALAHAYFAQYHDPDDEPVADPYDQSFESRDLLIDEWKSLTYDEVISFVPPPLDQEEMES
Test [4] concerns the target Mitogen-activated protein kinase 9 (Homo sapiens) (UniProt P45984). Kind of test: Displacement of biotin-labeled pep-JIP1 from GST fused JNK2 upto 200 uM by DELFIA assay.

The results in this text go back to ChEMBL document CHEMBL1150409, “Development of paramagnetic probes for molecular recognition studies in protein kinases” (J Med Chem, 2008).

Active and inactive are the calls of the source. The calls are words filed in the database; no cut-off is given here. Peptide text beside a SMILES is read from it. * marks the point of attachment. X1 = O=C(NCCCN*)c1ccc(-c2n[nH]c3ccccc23)cc1

Chain of Mitogen-activated protein kinase 9 (Homo sapiens) (P45984 whole entry, looked up, the tested form may be a part): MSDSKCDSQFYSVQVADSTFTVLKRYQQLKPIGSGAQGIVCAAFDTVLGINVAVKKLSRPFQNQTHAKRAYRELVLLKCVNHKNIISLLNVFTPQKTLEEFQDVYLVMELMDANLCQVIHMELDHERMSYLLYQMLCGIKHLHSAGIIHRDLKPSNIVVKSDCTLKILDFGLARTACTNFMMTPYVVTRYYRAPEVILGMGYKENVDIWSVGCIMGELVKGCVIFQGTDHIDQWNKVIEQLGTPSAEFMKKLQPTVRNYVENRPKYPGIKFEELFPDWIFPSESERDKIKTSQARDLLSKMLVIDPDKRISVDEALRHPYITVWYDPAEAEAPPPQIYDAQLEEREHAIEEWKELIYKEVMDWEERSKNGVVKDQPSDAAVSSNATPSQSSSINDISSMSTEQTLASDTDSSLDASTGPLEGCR
Chain of Mitogen-activated protein kinase 8 (P45983 whole entry): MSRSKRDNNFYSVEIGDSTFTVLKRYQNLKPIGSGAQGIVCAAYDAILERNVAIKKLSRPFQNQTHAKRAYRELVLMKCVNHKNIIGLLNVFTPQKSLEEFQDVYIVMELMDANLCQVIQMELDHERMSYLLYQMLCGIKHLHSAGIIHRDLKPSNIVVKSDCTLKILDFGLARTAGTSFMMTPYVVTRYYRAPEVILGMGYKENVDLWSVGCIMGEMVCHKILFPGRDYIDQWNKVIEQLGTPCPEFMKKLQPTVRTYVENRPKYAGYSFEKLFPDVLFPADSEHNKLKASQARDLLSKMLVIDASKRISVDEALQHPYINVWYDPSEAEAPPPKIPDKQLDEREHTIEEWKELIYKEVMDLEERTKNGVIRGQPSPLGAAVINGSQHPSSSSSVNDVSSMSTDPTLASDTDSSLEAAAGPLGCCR

As to `CC(=O)N[C@@H](CCCNC(=N)N)C(=O)N1CCC[C@H]1C(=O)N[C@H](C(=O)N[C@H](C(=O)N[C@@H](CC(C)C)C(=O)N[C@@H](CC(N)=O)C(=O)N[C@@H](CC(C)C)C(=O)O)[C@@H](C)O)[C@@H](C)O` (Ac-RPTTLNL-OH), the concentration for half-maximal inhibition (IC50) in test [1] amounted to 53000 nM.
`CC(=O)N[C@@H](CC(C)C)C(=O)N[C@@H](CC(N)=O)C(=O)N[C@@H](CC(C)C)C(=O)NCC(=O)NCC(=O)NCCCNC(=O)c1ccc(-c2n[nH]c3ccccc23)cc1` (Ac-LNLGG-X1): the IC50 is 295 nM in test [2] and 20 nM in test [1]. Also, the outcome in test [3] was inactive.
Take `CC(=O)N[C@@H](CC(C)C)C(=O)N[C@@H](CC(N)=O)C(=O)N[C@@H](CC(C)C)C(=O)O` (Ac-Leu-Asn-Leu-OH): the outcome in test [4] was inactive.
`O=C(O)CCCNC(=O)c1ccc(-c2n[nH]c3ccccc23)cc1` came in with an IC50 in test [2] of 1400 nM.
For `CC(=O)N[C@@H](CC(C)C)C(=O)N[C@@H](CC(N)=O)C(=O)N[C@@H](CC(C)C)C(=O)NCC(=O)NCC(=O)O` (Ac-LNLGG-OH), the outcome in test [4] was inactive.
Take `CC1(C)CC(NC(=O)CCCNC(=O)c2ccc(-c3n[nH]c4ccccc34)cc2)CC(C)(C)N1O`: the IC50 in test [2] amounted to 1200 nM.

Broadly, the IC50 is the concentration that inhibits the measured activity by half. A high value points to weaker potency.
